Experimental data taken from ChEMBL document CHEMBL1201862, “PubChem BioAssay data set” (2004).
Active and inactive are the calls of the source.

Tests used:
[1] = Concentration-dependent survival of SW480 colon cancer line, luminescence detection with CellTiter-Glo, half-maximal inhibitory concentration (AID 1117338); assay type: functional
[2] = RKO cell viability reduction, dose response, CellTiter-Glo luminescence (AID 1117322); assay type: functional
[3] = cytotoxicity toward HCT116 cells – cell-based, CellTiter-Glo luminescence, IC50, dose response (AID 1117332); assay type: functional; details: HCT-116
[4] = SNU-C1 cell viability reduction, dose response, CellTiter-Glo luminescence (AID 1117323); assay type: functional, cell-based
[5] = cytotoxicity toward Colo320 cells – cell-based, CellTiter-Glo luminescence, IC50, dose response (AID 1117334); assay type: functional; details: COLO 320
[6] = cytotoxicity toward HT-29 cells – cell-based, CellTiter-Glo luminescence, IC50, dose response (AID 1117330); assay type: functional
[7] = CellTiter-Glo luminescent dose response of DLD-1 viability loss (AID 1117352); assay type: functional
[8] = HCT116 cell viability decrease, GSK3B pretreatment – CellTiter-Glo, IC50, dose response (AID 1117339); assay type: functional; details: HCT-116
[9] = molecular target: Mu-type opioid receptor (Homo sapiens, UniProt P35372); assay type: functional, cell-based;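 also: U2OS cells with beta-arrestin recruitment to OPRM1 by beta-gal complementation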
Sequence of Mu-type opioid receptor (P35372 whole entry): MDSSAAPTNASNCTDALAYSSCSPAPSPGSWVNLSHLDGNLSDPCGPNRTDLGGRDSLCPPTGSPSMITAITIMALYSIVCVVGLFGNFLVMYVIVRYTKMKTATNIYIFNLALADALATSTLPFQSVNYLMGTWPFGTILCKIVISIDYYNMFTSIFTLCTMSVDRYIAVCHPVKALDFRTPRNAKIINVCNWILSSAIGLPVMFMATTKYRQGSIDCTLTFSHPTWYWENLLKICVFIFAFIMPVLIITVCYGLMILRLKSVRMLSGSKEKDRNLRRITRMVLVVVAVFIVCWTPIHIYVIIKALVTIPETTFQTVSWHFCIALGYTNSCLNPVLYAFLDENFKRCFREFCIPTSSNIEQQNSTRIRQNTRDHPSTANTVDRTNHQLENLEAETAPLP

[10] = molecular target: 5-hydroxytryptamine receptor 2A (Mus musculus, UniProt P35363); assay type: functional, cell-based;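 also: CHO-K1 cells with tagged receptor and beta-arrestin; agonist potency measured as compound-induced activation of the receptor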
Sequence of 5-hydroxytryptamine receptor 2A (P35363 whole entry): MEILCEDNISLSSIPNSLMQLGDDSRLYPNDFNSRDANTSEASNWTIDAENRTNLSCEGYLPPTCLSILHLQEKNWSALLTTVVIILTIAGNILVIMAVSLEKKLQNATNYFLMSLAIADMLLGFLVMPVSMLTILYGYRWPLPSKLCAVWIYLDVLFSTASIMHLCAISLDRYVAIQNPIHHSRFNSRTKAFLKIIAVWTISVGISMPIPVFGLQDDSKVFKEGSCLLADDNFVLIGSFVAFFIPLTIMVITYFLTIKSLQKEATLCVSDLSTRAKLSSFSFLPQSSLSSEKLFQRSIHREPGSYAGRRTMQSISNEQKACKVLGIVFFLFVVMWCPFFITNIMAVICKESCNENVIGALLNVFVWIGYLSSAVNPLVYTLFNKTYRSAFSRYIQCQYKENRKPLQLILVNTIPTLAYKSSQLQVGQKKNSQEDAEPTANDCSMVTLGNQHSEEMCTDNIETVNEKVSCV

[11] = molecular target: T1, Protein skinhead-1 (Caenorhabditis elegans, UniProt P34707); assay type: functional
T1 sequence (P34707 whole entry): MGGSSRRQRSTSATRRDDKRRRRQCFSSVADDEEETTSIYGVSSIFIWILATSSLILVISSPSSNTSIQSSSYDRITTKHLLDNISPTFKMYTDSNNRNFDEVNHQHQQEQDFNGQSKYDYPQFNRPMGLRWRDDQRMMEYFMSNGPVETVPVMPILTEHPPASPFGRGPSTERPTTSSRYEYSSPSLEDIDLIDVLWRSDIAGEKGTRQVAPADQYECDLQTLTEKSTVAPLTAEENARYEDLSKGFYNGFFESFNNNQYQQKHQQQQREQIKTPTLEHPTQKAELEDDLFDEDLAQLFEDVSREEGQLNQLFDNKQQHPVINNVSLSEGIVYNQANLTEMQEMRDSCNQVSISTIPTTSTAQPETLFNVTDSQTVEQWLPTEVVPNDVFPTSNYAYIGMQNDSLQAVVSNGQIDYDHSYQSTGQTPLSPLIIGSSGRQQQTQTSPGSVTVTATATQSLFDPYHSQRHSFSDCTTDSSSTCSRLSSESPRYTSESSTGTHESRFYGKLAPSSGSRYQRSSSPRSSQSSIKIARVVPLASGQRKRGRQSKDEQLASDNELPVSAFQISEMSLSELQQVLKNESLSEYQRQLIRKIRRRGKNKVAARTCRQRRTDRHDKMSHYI

[12] = molecular target: T2, Heat shock factor protein 1 (Mus musculus, UniProt P38532); test: inhibition of MG132-induced HSE-luciferase signal, confirmation, cell-based, NIH3T3, luminescence, dose retest (AID 2382); assay type: functional;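 also: NIH3T3 fibroblasts with HSF1-driven luciferase reporter stressed by proteasome inhibitor MG132; luminescence from HSF1-driven luciferase expression after 8 hours of MG132 stress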
T2 sequence (P38532 whole entry): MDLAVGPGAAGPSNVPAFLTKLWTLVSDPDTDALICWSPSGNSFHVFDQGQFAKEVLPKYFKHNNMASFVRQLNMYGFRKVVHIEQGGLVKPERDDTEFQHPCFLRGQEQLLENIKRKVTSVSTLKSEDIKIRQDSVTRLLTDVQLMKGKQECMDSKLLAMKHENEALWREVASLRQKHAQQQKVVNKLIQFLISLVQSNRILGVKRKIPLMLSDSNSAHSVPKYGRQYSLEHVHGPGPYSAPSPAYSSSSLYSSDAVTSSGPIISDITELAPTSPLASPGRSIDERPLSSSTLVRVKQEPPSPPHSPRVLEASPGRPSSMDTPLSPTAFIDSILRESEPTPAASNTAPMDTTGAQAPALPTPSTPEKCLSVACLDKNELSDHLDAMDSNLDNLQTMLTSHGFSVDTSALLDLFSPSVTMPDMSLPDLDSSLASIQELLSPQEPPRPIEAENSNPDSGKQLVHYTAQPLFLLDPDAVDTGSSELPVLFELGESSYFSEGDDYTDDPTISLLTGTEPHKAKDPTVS

[13] = molecular target: T3, Long-chain-fatty-acid--AMP ligase FadD28 (Mycobacterium tuberculosis, UniProt P9WQ59); test: Fluorescence polarization aasay to screen for inhibitors that compete for the binding of FadD28 to a bisubstrate Measured in Biochemical System Using Plate Reader - 2147-01_Inhibitor_Dose_CherryPick_Activity.; assay type: functional, Mycobacterium tuberculosis H37Rv
T3 sequence (P9WQ59 whole entry): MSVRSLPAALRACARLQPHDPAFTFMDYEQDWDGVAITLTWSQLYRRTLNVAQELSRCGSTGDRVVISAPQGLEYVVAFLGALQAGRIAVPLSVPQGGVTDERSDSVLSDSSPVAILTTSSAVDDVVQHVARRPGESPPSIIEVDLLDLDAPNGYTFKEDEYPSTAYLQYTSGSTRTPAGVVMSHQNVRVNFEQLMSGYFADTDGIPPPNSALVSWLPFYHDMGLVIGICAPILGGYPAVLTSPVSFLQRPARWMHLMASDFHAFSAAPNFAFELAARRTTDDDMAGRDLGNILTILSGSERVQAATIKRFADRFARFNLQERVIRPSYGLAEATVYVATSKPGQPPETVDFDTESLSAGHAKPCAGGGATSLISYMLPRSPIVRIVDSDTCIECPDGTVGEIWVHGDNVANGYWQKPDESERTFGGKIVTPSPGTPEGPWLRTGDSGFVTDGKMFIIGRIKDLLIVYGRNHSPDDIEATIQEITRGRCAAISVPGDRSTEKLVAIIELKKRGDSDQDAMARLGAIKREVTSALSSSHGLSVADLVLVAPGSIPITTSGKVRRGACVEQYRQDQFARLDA

[14] = molecular target: NAD-dependent protein deacylase sirtuin-5, mitochondrial (Homo sapiens, UniProt Q9NXA8); test: SIRT5 desuccinylase inhibitors, dose response, biochemical, fluorescence imaging, cherry-pick, set 5 (AID 720591);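 also: desuccinylation of succinyl peptide AMC substrate read as fluorescence after trypsin release; potency of inhibitors that lower fluorescence and may act on trypsin instead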
Sequence of NAD-dependent protein deacylase sirtuin-5, mitochondrial (Q9NXA8 whole entry): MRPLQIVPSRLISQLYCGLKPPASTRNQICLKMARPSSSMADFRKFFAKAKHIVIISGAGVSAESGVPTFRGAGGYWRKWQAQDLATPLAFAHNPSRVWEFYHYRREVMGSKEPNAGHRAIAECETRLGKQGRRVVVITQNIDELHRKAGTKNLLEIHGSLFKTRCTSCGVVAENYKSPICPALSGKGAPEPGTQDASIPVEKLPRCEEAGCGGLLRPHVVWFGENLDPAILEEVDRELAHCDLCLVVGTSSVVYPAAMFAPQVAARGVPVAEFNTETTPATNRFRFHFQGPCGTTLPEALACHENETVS

[15] = tested on: Streptococcus sp. 'group A'; test: growth inhibition of control SK(-) GAS strain, dose response, counter-screen for streptokinase expression inhibitor project, luminescence, kanamycin, BacTiterGlo, confirmation (AID 1900); assay type: functional, organism-based
[16] = molecular target: T4, Streptokinase A (Streptococcus pyogenes serotype M1, UniProt P10520); test: S. pyogenes streptokinase expression inhibitors, potency, dose response, plasminogen activation absorbance, OD405 (AID 1914); assay type: functional, Streptococcus pyogenes M1 GAS;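 also: secreted streptokinase activity via plasminogen activation per viability signal from cell pellet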
T4 sequence (P10520 whole entry): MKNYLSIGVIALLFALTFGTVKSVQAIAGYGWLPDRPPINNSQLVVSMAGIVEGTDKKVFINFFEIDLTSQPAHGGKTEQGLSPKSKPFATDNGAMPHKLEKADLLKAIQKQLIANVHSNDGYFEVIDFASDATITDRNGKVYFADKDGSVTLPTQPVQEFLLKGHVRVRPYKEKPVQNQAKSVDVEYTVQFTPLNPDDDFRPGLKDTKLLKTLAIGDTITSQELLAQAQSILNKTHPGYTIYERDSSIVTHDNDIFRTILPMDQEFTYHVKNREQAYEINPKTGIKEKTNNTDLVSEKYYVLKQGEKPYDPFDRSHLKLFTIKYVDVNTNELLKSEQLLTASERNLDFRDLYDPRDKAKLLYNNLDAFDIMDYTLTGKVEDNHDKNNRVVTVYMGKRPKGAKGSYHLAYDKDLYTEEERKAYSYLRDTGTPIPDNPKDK

[17] = tested on: Streptococcus; test: Group A Streptococcus viability loss, dose response, counter-screen for streptokinase expression inhibitor project, luminescence, BacTiterGlo (AID 1915); assay type: functional, organism-based;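 also: potency for reduction of bacterial viability or growth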
[18] = inhibitors of HIV Env-driven cell fusion, dose response, cherry-pick (AID 652057); assay type: functional, cell-based
[19] = CEM21 lymphoblast cell cytotoxicity, dose response, cytotoxicity control for viral fusion inhibitor project, CellTiter-Glo luminescence, cherry-picked (AID 652042); assay type: functional, cell-based;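 also: potency for signal decrease meaning cytotoxicity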
[20] = off-target signal loss in HeLa-CEM21 co-culture – HeLa F-luc CTL cells, cherry-picked, counter-screen for HIV-1 Env fusion inhibitor project, dose response (AID 652040); assay type: functional, cell-based;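 also: potency for signal decrease marking cytotoxic or nonspecific inhibition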
[21] = Shn3 3'UTR reporter inhibitors, dose response, cell-based, Clone20 osteoblasts, firefly luciferase, cherry-picked (AID 624132); assay type: functional;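 also: firefly luciferase luminescence from reporter carrying the Shn3 3'UTR in osteoblasts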
[22] = tested on: P388/ADR; test: cells; assay type: functional; details: Mus musculus
[23] = HepG2 cell cytotoxicity, dose response, cytotoxicity control for Shn3 inhibitor project, CellTiter-Glo, cherry-picked (AID 624134); assay type: functional, cell-based
[24] = control 3'UTR Renilla luciferase suppression, dose response, counter-screen for Shn3 inhibitor project, cell-based, Clone20-Shn3RL, cherry-picked (AID 624133); assay type: functional
[25] = tested on: SN12K1; test: cells; assay type: functional; details: Homo sapiens
[26] = tested on: P388; test: cells; assay type: functional; details: Mus musculus
[27] = molecular target: Paired box protein Pax-8 (Homo sapiens, UniProt Q06710); test: inhibitors of PAX8-driven TPO luciferase reporter, dose response, RMG-I cells, cherry-pick (AID 687027); assay type: functional, cell-based;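 also: luciferase reporter driven by Pax8 target thyroperoxidase promoter measured by SteadyGlo luminescence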
Sequence of Paired box protein Pax-8 (Q06710 whole entry): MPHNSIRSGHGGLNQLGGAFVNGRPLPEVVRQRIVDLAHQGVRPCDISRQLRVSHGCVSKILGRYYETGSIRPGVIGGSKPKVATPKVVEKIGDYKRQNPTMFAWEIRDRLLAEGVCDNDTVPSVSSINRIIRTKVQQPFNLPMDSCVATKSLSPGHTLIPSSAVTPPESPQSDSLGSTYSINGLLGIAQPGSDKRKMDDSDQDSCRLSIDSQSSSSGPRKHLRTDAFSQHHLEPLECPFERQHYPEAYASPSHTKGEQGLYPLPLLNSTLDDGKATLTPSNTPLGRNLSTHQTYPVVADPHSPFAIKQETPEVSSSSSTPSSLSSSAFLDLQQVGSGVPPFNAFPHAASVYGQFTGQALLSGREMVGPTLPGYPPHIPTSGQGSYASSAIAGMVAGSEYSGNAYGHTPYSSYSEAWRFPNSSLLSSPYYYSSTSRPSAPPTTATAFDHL

With `CCCCCCOC(=O)c1cccnc1` the IC50 [1] was > 20 µM (inactive), the IC50 [2] was > 20 µM (inactive) and the IC50 [3] was > 20 µM (inactive). For the same molecule, the IC50 [4] was > 20 µM (inactive), the IC50 [5] was > 20 µM (inactive) and the IC50 [6] was > 20 µM (inactive). The IC50 [7] was > 20 µM (inactive) and the IC50 [8] was > 20 µM (inactive).

In the case of `O=C(c1ccco1)N1CCN(Cc2ccc(Cl)cc2)CC1`, the EC50 [9] is reported as 92.5 µM (inactive) and the EC50 [10] is reported as 4.08 µM (active).

With `Fc1ccc2cc(-c3ccccc3)ncc2c1` the IC50 [11] was > 100 µM (inactive).

In the case of `Cc1cccc(NC(=O)CN2C(=O)N/C(=C/c3cc(C)n(C(C)C)c3C)C2=O)c1`, the EC50 [12] is reported as > 195 µM (not active) and the AC50 [13] is reported as 7.01 µM (active).

In the case of `O=C(Cn1c(=O)oc2ccccc21)Nc1cccc(Cl)c1`, the AC50 [14] is reported as > 30 µM (inactive).

With `O=C(Nc1ccc(CN2CCOCC2)cc1)c1cc2ccccc2o1` the IC50 [11] was 15.4 µM (active).

In the case of `Cc1ccc(C2Oc3ccccc3C3=C2C(c2cccs2)n2ncnc2N3)cc1` (stereo unspecified), the EC50 [15] is reported as 2.7 µM (active), the EC50 [16] is reported as > 150 µM (not active) and the EC50 [17] is reported as 7.1 µM (active). The AC50 [18] was 9.29 µM (active), the AC50 [19] was 31.7 µM (active) and the AC50 [20] was 14.1 µM (active).

With `OC(COCc1ccc(Cl)cc1)CN1CCN(c2ccccn2)CC1` (stereo unspecified) the EC50 [9] was 92.5 µM (inactive) and the EC50 [10] was 0.819 µM (active).

In the case of `COc1cccc(C(=O)NNC(=O)CCN2CCN(c3ccccc3)CC2)c1`, the EC50 [9] is reported as 92.4 µM (inactive) and the EC50 [10] is reported as 0.427 µM (active).

For `O=C1NC2C(=CC(O)C(O)C2O)c2cc3c(cc21)OCO3` (stereo unspecified), the AC50 [21] was 2.22 µM (active), the GI50 [22] was 0.0984 µM (active) and the AC50 [23] was 53.9 µM (active). The AC50 [24] was 3.82 µM (active), the GI50 [25] was 0.234 µM (active) and the GI50 [26] was 0.115 µM (active). The IC50 [11] was 64.3 µM (inactive), the AC50 [18] was 2.38 µM (active) and the AC50 [19] was 0.738 µM (active). For the same molecule, the AC50 [27] was 0.325 µM (active) and the AC50 [20] was 3.78 µM (active).
